Source: PMC8802628, “Selective activation of PFKL suppresses the phagocytic oxidative burst” (Cell, 2021)
Each block holds one compound with its values, some of them ahead of it.

What was measured:
PFKL [1] = molecular target: T1, PFKL (Homo sapiens, UniProt P17858); test: Thermal inactivation assay of PFKL; assay type: biochemical; conditions: 35°C; 200 μM FBP, 200 nM NA-11
T1 construct: made in house; host or cells: Sf9 insect cells (baculovirus, Bac-to-Bac)
T1 sequence (P17858 1-780): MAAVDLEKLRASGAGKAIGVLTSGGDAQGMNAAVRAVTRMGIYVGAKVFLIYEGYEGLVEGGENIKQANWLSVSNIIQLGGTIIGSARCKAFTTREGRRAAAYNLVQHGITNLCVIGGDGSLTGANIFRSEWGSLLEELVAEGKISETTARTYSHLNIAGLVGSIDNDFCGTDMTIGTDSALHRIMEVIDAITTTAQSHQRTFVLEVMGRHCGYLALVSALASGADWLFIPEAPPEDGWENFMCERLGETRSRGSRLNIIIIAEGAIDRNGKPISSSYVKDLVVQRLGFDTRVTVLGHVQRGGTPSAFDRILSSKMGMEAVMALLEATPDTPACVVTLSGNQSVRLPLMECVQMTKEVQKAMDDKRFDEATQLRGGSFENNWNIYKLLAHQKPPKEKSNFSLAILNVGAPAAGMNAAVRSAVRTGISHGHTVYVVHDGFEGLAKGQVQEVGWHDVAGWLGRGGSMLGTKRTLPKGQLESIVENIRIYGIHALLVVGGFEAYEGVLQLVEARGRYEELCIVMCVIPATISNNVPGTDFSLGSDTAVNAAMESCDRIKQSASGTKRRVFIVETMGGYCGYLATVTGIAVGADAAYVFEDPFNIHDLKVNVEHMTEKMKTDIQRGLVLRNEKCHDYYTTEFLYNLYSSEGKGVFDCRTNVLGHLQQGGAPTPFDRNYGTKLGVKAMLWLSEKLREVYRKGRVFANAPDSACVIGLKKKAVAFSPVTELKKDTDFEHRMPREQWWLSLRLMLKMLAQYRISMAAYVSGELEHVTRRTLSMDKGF
Description: Thermal inactivation assays were performed as previously described for PFKP, with modifications to account for the decreased stability of PFKL ([Sánchez-Martínez et al., 2000]). PFKL was diluted to 10 ng/mL, with a final buffer composition of 53.3 mM HEPES, 100 mM KCl, 0.167 mM DTT, 83.3 μM ammonium sulfate, 0.83% glycerol, 0.170 mM ATP, and 16.7 mM EDTA. Samples were incubated at 35°C. At the times indicated, samples were removed and residual PFK1 activity measured using the PK/LDH auxiliary enzyme assay described above with 125 μM ATP and 5 mM F6P. To determine if small molecule ligands altered PFKL stability, 200 μM FBP and 200 nM NA-11 were added.

[2] = test system: human peripheral blood neutrophils; test: NETosis assay in human neutrophils (SYTOX Green, DNA area); assay type: cell-based; conditions: PMA; SAR analogs compared to LDC7559
Description: Freshly purified neutrophils were plated at 6 × 10^3 cells/well in glass bottom 96-well plates (SensoPlate, Greiner Bio-One 82050-792) in the RPMI medium described above. Cells were pretreated with DMSO vehicle, 0.5 μM NA-11, 100 μM apocynin, 0.5 μM and 5 μM PALP, or 0.5 μM and 5 μM LDC7559 for 30 min, and then stimulated with 50 nM PMA, 1 μM f-MLP, 5 μg/mL cholesterol crystals, 10 μg/mL LPS, 25 μM nigericin, or 25 μM calcymicin (A23187) for 3 h (except in Figures S1A, 6A and S7C, where cells were stimulated for 4 h). Cells were fixed and permeabilized in 2.5% paraformaldehyde (PFA) and 0.02% Triton X-100 in PBS for 30 min. For quantification of NETosis, cells were stained with 150 nM SYTOX Green and imaged in a KEYENCE Fluorescence Microscope (KEYENCE, ZB-X800E) at 10 x magnification. For immunolabeling, fixed cells were blocked with 2% BSA for 1 h, and then stained with anti-CitH3 and anti-MPO antibodies at a dilution of 1/200 in 1% BSA in PBS. Images were taken at 60 x magnification using an ImageXpress Micro Confocal high-content imaging system (Molecular Devices).
Semi-automated analysis of both phase and fluorescence images of SYTOX Green-stained neutrophils used a specialized MATLAB algorithm. Total cells were counted by scoring phase standard deviation and radial symmetry. NETosis was classified in cells by measuring the DNA area in the fluorescence image and comparing with a select internal training set for each experiment. Unstimulated cells and PMA-stimulated, […] cells served as negative controls. PMA-stimulated cells served as a positive control. NET-forming cells are presented as a percentage of total cells.

PMNs [3] = test: ROS detection assay (ROS-Glo) in neutrophils; assay type: cell-based, human
Description: ROS were measured using the ROS-Glo bioluminescent assay (Promega) for the direct detection of H2O2. Briefly, neutrophils (2 × 10^4) were plated in white 96-well plates (Greiner) in high glucose DMEM medium. Cells were cultured with DMSO vehicle, 0.5 μM NA-11, 5 μM LDC7559, 100 μM apocynin, or 200 μM thionicotinamide for 30 min, and then stimulated with 50 nM PMA or treated with 10 μg/mL zymosan beads, pre-opsonized in 20% serum for 30 min. Luminescence, after the addition of H2O2 substrate solution of 20 min, and then ROS-Glo detection solution for 20 min, was recorded on a plate reader (Envision).

PFKL [4] = molecular target: T1, PFKL; test: Recombinant PFKL activity assay (relief of ATP inhibition); assay type: biochemical; conditions: 3.1 mM ATP
Excerpt: Recombinant N-terminal His-tagged human PFKL (NP_002617), PFKM (NP_000280), and PFKP (NM_002627.4) were generated as described ([Webb et al., 2015], [2017]). Point mutants of PFK1 were generated using the QuikChange Lightning kit (Aligent).
His-tagged PFK1 was expressed and purified as described with slight modifications ([Webb et al., 2015], [2017]). Briefly, baculovirus was generated using the Bac-to-Bac Expression system (Invitrogen). PFK1 was expressed in 2-5 × 10^6 sf9 cells at a multiplicity of infection of two for 48 h. Cells were lysed in 20 mM HEPES, pH 7.5, 80 mM potassium phosphate, 1 mM 2-mercapentoethanol, 10% glycerol, 10 mM imidazole, and EDTA-free Protease Inhibitor Cocktail (Abcam) with a Dounce homogenizer. The soluble lysate was incubated with HisPur cobalt resin (ThermoFisher Scientific). The resin was washed with 5 bead volumes lysis buffer, 10 bead volumes lysis buffer containing 2 M NaCl, and 5 further bead volumes lysis buffer. PFK1 was eluted in lysis buffer containing 100 mM imidazole. Fractions containing protein were pooled, passed over a desalting column equilibrated in freezing buffer [20 mM HEPES pH 7.5, 1 mM DTT, 500 μM ammonium sulfate, 5% glycerol, 1 mM ATP, and 100 μM EDTA] and concentrated using an Amicon Ultracel-30K Centrifugal Filter Unit (MilliporeSigma). Protein was quantified using a Bradford Protein Assay kit (ThermoFisher Scientific), and aliquotes frozen in liquid nitrogen for storage at −80°C.
PFK1 activity was determined using the rate of FBP production via an auxiliary enzyme assay adapted to a 96-well format ([Brüser et al., 2012]; [Webb et al., 2015]). The auxiliary enzymes aldolase, triosephosphate isomerase, and glycerol phosphate dehydrogenase were purchased from MilliporeSigma as ammonium sulfate slurries and desalted using an Amicon Ultracel-10K Centrifugal Filter Unit. For assays containing FBP, the rate of ADP production was determined using the auxiliary enzymes pyruvate kinase (PK) and lactate dehydrogenase (LDH) (MilliporeSigma) in a buffer containing 250 μM phosphoenolpyruvic acid, […] NADH, 50 mM HEPES pH 7.5, 100 mM KCl, 1 mM DTT, and effector concentrations as described in the text. The temperature was equilibrated to 25°C for 5 min before initiating the reaction 10 mM MgCl2. Absorbance at 340 nm was measured using a Varioskan LUX Multimode microplate reader (ThermoFisher). Kinetic parameters were generated by nonlinear regression analysis using Prism (GraphPad Software) and are the mean of a minimum of three measurements from two independent preparations of protein. One unit of activity was defined as the amount of enzyme that catalyzed the formation of 1 μmol of fructose 1,6-bisphosphate per min at 25°C. Assays for PFKM were performed at pH 7.0 due to the pH-dependence of ATP inhibition ([Trivedi and Danforth, 1966]).

[5] = test system: human bronchial epithelial cells (HBECs); test: Epithelial barrier tissue damage assay (FITC-dextran); assay type: cell-based; conditions: PMA-activated neutrophils on HBECs
Description: Human bronchial epithelial cells (HBECs) (4 × 10^4 in […] complete PneumaCult-Ex plus medium) were added to a HTS Transwell-96 permeable support plate (polyester membrane with a 0.4 μm pores) and immersed in receiver plates containing 150 μL of complete PneumaCult-Ex plus medium for 3 days. The medium on confluent monolayers was then replaced with RPMI medium containing neutrophils (4 × 10^4) in RPMI buffer that were previously treated with 5 μM NA-11, 100 μM apocynin, 5 μM NA-4, or DMSO vehicle and then activated with 100 nM PMA. The transwell plate was cultured in a new receiver plate containing 150 μL Hank’s balanced salt solution (HBSS) for 2 h. 10 μL of DMEM supplemented with 5% FBS and 2 mM L-glutamine were added to each well and the plate was incubated for additional 18 h. To measure the permeability of the epithelial barrier, FITC-dextran (200 μg/mL) and DNase-1 (22 Units/mL) were added to the apical side for 1 h. FITC-dextran in the receiver plate was measured (ex: 494 em: 521).

E. coli = test: Phagocytosis assay: E. coli C.F.U. recovered from PMNs; assay type: cell-based, human; conditions: neutrophils pretreated 30 min
Description: Neutrophils (1 × 10^6) were cultured in 6-well tissue in RPMI medium containing DMSO vehicle, 0.5 μM NA-11, 0.5 μM NA-4, 100 μM Apocynin or 100 μM thionicotinamide (TN) for 30 min. E. coli grown in LB broth overnight (2 mL) were opsonized with human serum (1 mL pooled from three donors) for 1 h at room temperature. Opsonized bacteria were washed with PBS, resuspended in LB broth to an OD600of 0.1 and then added to cultured neutrophils at an MOI of 1 for 30 min. Cells were washed with medium three times and then cultured with 300 μg/mL gentamicin for 2 h to kill any extracellular bacteria. Cells were then washed again, twice with medium and once with PBS. To release phagocytosed bacteria, neutrophils were lysed in 0.05% saponin in PBS. Lysates were passed through a 25’ gauge needed several times and the number of viable phagocytosed bacteria was determined by colony counting.

PMNs [6] = test: NADPH/NADP+ detection assay in neutrophils; assay type: cell-based, human; conditions: pretreatment, PMA-activated neutrophils
Description: The ratio of NADPH/NADP^+ (or NADH/NAD^+) was calculated after measuring the individual concentrations of NADPH and NADP^+ (or NADH and NAD^+) with NADP/NADPH-Glo (or NAD/NADH-Glo) assays (Promega). […] Cells were lysed in plates by addition of 1% dodecyltrimethylammonium bromide (DTAB). To measure NADPH, half of the samples was heated at 60 °C for 30 min. The other half was treated with HCl before heating to 60°C, to measure NADP^+. All samples were neutralized before adding luciferase detection reagent, then incubated for 1 h with gentle shaking. Luminescence was recorded on a plate reader (Envision).

GSDMD = molecular target: T2, GSDMD (Homo sapiens, UniProt P57764); test: TR-FRET liposome cargo release (GSDMD pore formation); assay type: biochemical; conditions: 10 μM
T2 sequence (P57764 1-484): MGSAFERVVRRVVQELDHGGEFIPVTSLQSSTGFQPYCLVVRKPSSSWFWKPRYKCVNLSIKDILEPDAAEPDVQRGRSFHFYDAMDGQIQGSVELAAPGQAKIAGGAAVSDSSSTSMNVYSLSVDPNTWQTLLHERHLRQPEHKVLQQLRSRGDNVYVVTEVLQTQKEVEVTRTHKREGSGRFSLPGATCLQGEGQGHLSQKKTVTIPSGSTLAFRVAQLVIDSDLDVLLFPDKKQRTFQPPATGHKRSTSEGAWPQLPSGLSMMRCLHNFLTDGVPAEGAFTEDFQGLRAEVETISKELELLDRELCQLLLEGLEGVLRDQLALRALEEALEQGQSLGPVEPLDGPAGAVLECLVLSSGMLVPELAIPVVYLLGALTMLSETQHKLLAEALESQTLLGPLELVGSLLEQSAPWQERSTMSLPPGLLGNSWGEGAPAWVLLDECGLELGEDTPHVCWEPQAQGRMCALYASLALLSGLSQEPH
Description: GSDMD-dependent liposome cargo release was conducted by Confluence Discovery Technologies with modifications to the procedure described previously ([Aglietti et al., 2016]). Briefly, liposomes with an encapsulated cargo of europium-chelate conjugated biotin were formed from a lipid mixture of DOPC:DOPE (1:1). 0.15 mg/mL of cargo-loaded liposomes were mixed with 0.3 μM of recombinant GSDMD and incubated with 10 μM LDC7559, 10 μM disulfiram or DMSO vehicle. 0.15 μM caspase-4 and 50 nM streptavidin-Alexa Fluor 647 were added and TR-FRET was read over 1 h using a PHERAstar FSX Microplate Reader (BMG Labtech) equipped with a TR-FRET module.

- protection of PFKL from thermal inactivation (PFKL [1]): protected PFKL from thermal inactivation
SMILES: O=C(COP(=O)(O)O)[C@@H](O)[C@H](O)[C@H](O)COP(=O)(O)O [FBP, fructose 1,6-bisphosphate]

- activation of PFKL (PFKL [4]): did not activate PFKL
SMILES: COc1ccccc1-c1cc2n(n1)Cc1ccc(N)cc1OC2 [NA-4]
- inhibition of PMA-induced NETosis [2]: no inhibitor activity
- ROS production during phagocytosis of opsonized zymosan (PMNs [3]; over 2 h): did not suppress ROS production
- protection of epithelial layer from neutrophil-induced oxidative damage [5]: did not

SMILES: COc1cc(C(C)=O)ccc1O [apocynin, reference compound]
- PMA-induced ROS production (PMNs [3]; 50 nM PMA): prevented
- killing of phagocytosed bacteria (bacterial colonies recovered) (E. coli): less efficient killers of phagocytosed bacteria
- ratio of NADPH/NADP+ (PMNs [6]): roughly twice that of untreated cells
- protection of epithelial layer from neutrophil-induced oxidative damage [5]: protected the epithelial layer

- liposome permeabilization by GSDMD pore-forming fragment (GSDMD): prevented liposome permeabilization
SMILES: CCN(CC)C(=S)SSC(=S)N(CC)CC [disulfiram]
